In patent US8394786B2, “Quinazoline derivatives” (Janssen Pharmaceutica N.V., priority 2003, dated 2013):

Assays:
SKOV3 cells = test: Serum starved proliferation assay on the ovarian carcinoma SKOV3 cells (C3); type: cell-based; conditions: EGF stimulated (100 ng/ml, 72 hours, serum free) or 72 hours with compounds, MTT cell viability assay; for IC50: Homo sapiens, SK-OV-3, 72 h, read-out: SKOV3 cell (C3): pIC50 (converted)
Outline: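 SKOV3 cells grown 24 h in 10% FCS, then treated with compound under serum-free conditions (37 °C, 5% CO2) and stimulated 72 h with EGF at 100 ng/ml final; read-out by MTT viability. Alternative format: compound for 72 h after the same 24 h FCS step, also by MTT.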

EGFR = EGFR (Homo sapiens, UniProt P00533); test: In vitro inhibition of EGFR, Flash Plate or glass-fiber filter technology (C2); type: biochemical; parameters: 0.5 μg EGFR-kinase domain/well; conditions: EGFR-kinase domain, 5.0 μM unlabeled ATP, read-out: Kinase activity.(C2): pIC50 (converted)
Outline: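 EGFR kinase domain (0.5 μg/well) phosphorylated poly(GT) with 5.0 μM ATP plus AT^33P, dose response 1·10^−6 to 1·10^−10 M. Flash Plate: biotin-poly(GT), Tris pH 8.0, 30° C, 60 min, scintillation counting. Filter: Tris pH 7.5 with MnCl2, 25° C, 10 min, 33P counted on glass-fiber filter by phosphorimaging.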

Chain of EGFR (P00533 712-979 limits assumed): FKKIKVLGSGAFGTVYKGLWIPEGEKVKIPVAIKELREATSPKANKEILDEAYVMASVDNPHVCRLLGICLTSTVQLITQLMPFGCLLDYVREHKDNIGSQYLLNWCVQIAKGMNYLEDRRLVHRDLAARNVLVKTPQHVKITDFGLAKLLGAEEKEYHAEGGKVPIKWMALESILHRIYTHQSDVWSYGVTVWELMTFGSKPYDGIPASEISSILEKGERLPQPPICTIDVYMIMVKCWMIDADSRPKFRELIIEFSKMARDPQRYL

Compound | IC50 (SKOV3 cells) [nM] | IC50 (EGFR) [nM] | SKOV3 cell (C3): pIC50 (SKOV3 cells)
COc1cc2ncnc3c2cc1OCCCCC(=O)NCCCC(=O)NCc1ccc(Cl)cc1N3 [Compound 163, 4,6-ethanediylidene-8H-pyrimido[4,5-b][6,1,12,17]benzoxatriazacycloeicosine-12,17(18H)-dione, 22-chloro-9,10,11,13,14,15,16,19,24-nonahydro-25-methoxy-] | 398 | 100 | –
COCCCNCC(=O)N1CCOc2cc3c(ncnc3cc2OC)Nc2cc(Cl)ccc2CCCNC(=O)C1 [Compound 49, 4,6-ethanediylidenepyrimido[4,5-b][6,1,9,12]benzoxatriazacycloheptadecin-12(13H)-one, 19-chloro-8,9,10,11,14,15,16,21-octahydro-22-methoxy-10-[[(3-methoxypropyl)amino]acetyl]-] | 794 | 398 | –
COc1cc2ncnc3c2cc1OCCCCC(=O)NC(Cc1ccccc1)C(=O)NCc1ccc(Cl)cc1N3 (stereo not drawn) [Compound 138, 4,6-ethanediylidene-8H-pyrimido[4,5-b][6,1,12,15]benzoxatriazacyclooctadecine-12,15(16H)-dione, 20-chloro-9,10,11,13,14,17,22-heptahydro-23-methoxy-14-(phenylmethyl)-] | 631 | 2000 | –
COc1cc2ncnc3c2cc1OCCCNCC(=O)NCCCc1ccc(Cl)cc1N3 [Compound 55, 4,6-ethanediylidene-8H-pyrimido[4,5-b][6,1,10,13]benzoxatriazacyclooctadecin-13(14H)-one, 20-chloro-9,10,11,12,15,16,17,22-octahydro-23-methoxy-] | 200 | 501 | –
COc1cc2ncnc3c2cc1OCCNCC(=O)NCCCc1ccc(Cl)cc1N3 [Compound 42, 4,6-ethanediylidenepyrimido[4,5-b][6,1,9,12]benzoxatriazacycloheptadecin-12(13H)-one, 19-chloro-8,9,10,11,14,15,16,21-octahydro-22-methoxy-] | 63.1 | 501 | –
COc1cc2ncnc3c2cc1OCCN(C)CC(=O)NCCCc1ccc(Cl)cc1N3 [Compound 52, 4,6-ethanediylidenepyrimido[4,5-b][6,1,9,12]benzoxatriazacycloheptadecin-12(13H)-one, 19-chloro-8,9,10,11,14,15,16,21-octahydro-22-methoxy-10-methyl-] | 100 | 79.4 | –
COc1cc2ncnc3c2cc1OCCCCNCCc1ccc(Cl)cc1N3 [Compound 32, 4,6-ethanediylidenepyrimido[4,5-b][6,1,11]benzoxadiazacyclopentadecine, 17-chloro-8,9,10,11,12,13,14,19-octahydro-20-methoxy-] | 288 | 3.98 | –
COc1cc2ncnc3c2cc1OCCCCC(=O)NC(C(C)O)C(=O)NCc1ccc(Cl)cc1N3 (stereo not drawn) [Compound 147, 4,6-ethanediylidene-8H-pyrimido[4,5-b][6,1,12,15]benzoxatriazacyclooctadecine-12,15(16H)-dione, 20-chloro-9,10,11,13,14,17,22-heptahydro-14-(1-hydroxyethyl)-23-methoxy-] | 251 | 126 | –
COc1cc2ncnc3c2cc1OCCCC(=O)NC(Cc1ccccc1)C(=O)NCc1ccc(Cl)cc1N3 (stereo not drawn) [Compound 145, 4,6-ethanediylidenepyrimido[4,5-b][6,1,11,14]benzoxatriazacycloheptadecine-11,14(8H,15H)-dione, 19-chloro-9,10,12,13,16,21-hexahydro-22-methoxy-13-(phenylmethyl)-] | 251 | 200 | –
CCN1CCOc2cc3c(ncnc3cc2OC)Nc2cc(Cl)ccc2CCCNC(=O)C1 [Compound 53, 4,6-ethanediylidenepyrimido[4,5-b][6,1,9,12]benzoxatriazacycloheptadecin-12(13H)-one, 19-chloro-10-ethyl-8,9,10,11,14,15,16,21-octahydro-22-methoxy-] | 501 | 200 | –
COc1cc2ncnc3c2cc1OCC1CCCN1CC(=O)NCCCc1ccc(Cl)cc1N3 (stereo not drawn) [Compound 54, 1,22-ethanediylidene-5H,17H-pyrimido[4,5-b]pyrrolo[2,1-h][6,1,9,12]benzoxatriazacycloheptadecin-14(15H)-one, 7-chloro-10,11,12,13,18,19,19a,20-octahydro-24-methoxy-] | 1260 | 126 | –
COc1cc2ncnc3c2cc1OCCCCNC(=O)C1CCCN1Cc1cc(F)c(Cl)cc1N3 (stereo not drawn) [Compound 102, 4,6-ethanediylidenepyrimido[4,5-b]pyrrolo[2,1-m][6,1,11,14]benzoxatriazacycloheptadecin-13(8H)-one, 21-chloro-20-fluoro-9,10,11,12,13a,14,15,16,18,23-decahydro-24-methoxy-] | 50.1 | 200 | –
COc1cc2ncnc3c2cc1OCC(=O)NC(Cc1ccccc1)C(=O)NCc1ccc(Cl)cc1N3 (stereo not drawn) [Compound 122, 4,6-ethanediylidenepyrimido[4,5-b][6,1,9,12]benzoxatriazacyclopentadecine-9,12(8H,13H)-dione, 17-chloro-10,11,14,19-tetrahydro-20-methoxy-11-(phenylmethyl)-] | 10000 | 398 | –
COc1cc2ncnc3c2cc1OCCCCCCC(NC(=O)OC(C)(C)C)C(=O)NCc1ccc(Cl)cc1N3 (stereo not drawn) [Compound 111, carbamic acid, (20-chloro-9,10,11,12,13,14,15,16,17,22-decahydro-23-methoxy-15-oxo-4,6-ethanediylidene-8H-pyrimido[4,5-b][6,1,15]benzoxadiazacyclooctadecin-14-yl)-, 1,1-dimethylethyl ester] | 10000 | 1580 | –
COc1cc2ncnc3c2cc1OCCCC(=O)NC(C(C)O)C(=O)NCc1ccc(Cl)cc1N3 (stereo not drawn) [Compound 146, 4,6-ethanediylidenepyrimido[4,5-b][6,1,11,14]benzoxatriazacycloheptadecine-11,14(8H,15H)-dione, 19-chloro-9,10,12,13,16,21-hexahydro-13-(1-hydroxyethyl)-22-methoxy-] | 631 | 200 | –
COc1cc2ncnc3c2cc1OCC(=O)NC(CC(C)C)C(=O)NCCc1ccc(Cl)cc1N3 (stereo not drawn) [Compound 141, 4,6-ethanediylidene-8H-pyrimido[4,5-b][6,1,9,12]benzoxatriazacyclohexadecine-9,12-dione, 18-chloro-10,11,13,14,15,20-hexahydro-21-methoxy-11-(2-methylpropyl)-] | 1580 | 794 | –
COc1cc2ncnc3c2cc1OCC(=O)NCCCC(=O)NCc1ccccc1N3 [Compound 158, 4,6-ethanediylidenepyrimido[4,5-b][6,1,9,14]benzoxatriazacycloheptadecine-9,14(8H,15H)-dione, 10,11,12,13,16,21-hexahydro-22-methoxy-] | 10000 | 5010 | –
COc1cc2ncnc3c2cc1OCCCCCNCc1cc(F)c(Br)cc1N3 [Compound 61, 4,6-ethenopyrimido[4,5-b][6,1,12]benzoxadiazacyclopentadecine, 17-bromo-16-fluoro-8,9,10,11,12,13,14,19-octahydro-20-methoxy-] | 398 | 15.8 | –
COc1cc2ncnc3c2cc1OCC(=O)NCC(=O)NCc1ccc(Cl)cc1N3 [Compound 151, 4,6-ethenopyrimido[4,5-b][6,1,9,12]benzoxatriazacyclopentadecine-9,12(8H,13H)-dione, 17-chloro-10,11,14,19-tetrahydro-20-methoxy-] | 10000 | 3160 | –
COc1cc2ncnc3c2cc1OCCC1CCN(CC1)CC(=O)NCCCc1ccc(Cl)cc1N3 [Compound 58, 14H-4,6-ethanediylidene-10,13-ethano-8H-pyrimido[4,5-b][6,1,12,15]benzoxatriazacycloeicosin-15(16H)-one, 22-chloro-9,10,11,12,17,18,19,24-octahydro-27-methoxy-] | 2000 | 2000 | –
COc1cc2ncnc3c2cc1OCCCCC(=O)NCCC(=O)NCc1ccc(Cl)cc1N3 [Compound 162, 4,6-ethanediylidenepyrimido[4,5-b][6,1,12,16]benzoxatriazacyclononadecine-12,16(13H,17H)-dione, 21-chloro-8,9,10,11,14,15,18,23-octahydro-24-methoxy-] | 50.1 | 158 | –
COc1cc2ncnc3c2cc1OCC(=O)NC(C)C(=O)NCc1ccc(Cl)cc1N3 (stereo not drawn) [Compound 120, 4,6-ethanediylidenepyrimido[4,5-b][6,1,9,12]benzoxatriazacyclopentadecine-9,12(8H,13H)-dione, 17-chloro-10,11,14,19-tetrahydro-20-methoxy-11-methyl-] | 1000 | 2000 | –
COc1cc2ncnc3c2cc1OCC(=O)NC(C)C(=O)NCc1ccccc1N3 (stereo not drawn) [Compound 123, 4,6-ethanediylidenepyrimido[4,5-b][6,1,9,12]benzoxatriazacyclopentadecine-9,12(8H,13H)-dione, 10,11,14,19-tetrahydro-20-methoxy-11-methyl-] | 10000 | 6310 | –
COc1cc2ncnc3c2cc1OCCCC=CCC(NC(=O)OC(C)(C)C)C(=O)NCc1ccc(Cl)cc1N3 (stereo not drawn) [Compound 109, carbamic acid, (20-chloro-9,10,13,14,15,16,17,22-octahydro-23-methoxy-15-oxo-4,6-ethanediylidene-8H-pyrimido[4,5-b][6,1,15]benzoxadiazacyclooctadecin-14-yl)-, 1,1-dimethylethyl ester] | – | 2000 | 6.5
